This is an account of results in BindingDB's records for doi:10.1021/jm020355o (University of Arizona, 2003).

The nature of this test: Antagonistic activity towards Melanocortin 1 receptor in Xenopus frog skin using competitive binding in the presence of 500 pM of alpha-melanocyte stimulating hormone.
In the case of `CC(C)[C@H](NC(=O)[C@@H]1CCC(=O)NCC(=O)N2CCC[C@H]2C(=O)N[C@H](Cc2ccccc2)C(=O)N[C@@H](CCCN=C(N)N)C(=O)N[C@@H](Cc2c[nH]c3ccccc23)C(=O)N1)C(=O)N[C@H](C(=O)NCC(N)=O)C(C)C` [19-Benzyl-16-(3-guanidino-propyl)-13-(1H-indol-3-ylmethyl)-4,7,12,15,18,21-hexaoxo-docosahydro-3a,6,11,14,17,20-hexaaza-cyclopentacycloicosene-10-carboxylic acid {1-[1-(carbamoylmethyl-carbamoyl)-2-methyl-propylcarbamoyl]-2-methyl-propyl}-amide], the IC50 worked out at 10000 nM.

Turning to `CC(C)[C@H](NC(=O)[C@@H]1CCC(=O)NCC(=O)N2CCC[C@H]2C(=O)N[C@H](Cc2ccc3ccccc3c2)C(=O)N[C@@H](CCCN=C(N)N)C(=O)N[C@@H](Cc2c[nH]c3ccccc23)C(=O)N1)C(=O)N[C@H](C(=O)NCC(N)=O)C(C)C` [c[Gly-Pro-D-Nal(2')-Arg-Trp-Glu]-Val-Val-Gly-NH2], the IC50 worked out at 637 nM. The value for `CC(C)[C@H](NC(=O)[C@@H]1CCC(=O)N2CCC[C@H]2C(=O)N[C@H](Cc2ccc3ccccc3c2)C(=O)N[C@@H](CCCN=C(N)N)C(=O)N[C@@H](Cc2c[nH]c3ccccc23)C(=O)N1)C(=O)N[C@H](C(=O)NCC(N)=O)C(C)C` [c[Pro-D-Nal(2')-Arg-Trp-Glu]-Val-Val-Gly-NH2] was 1500 nM.
